Test results reported in PMC9727064, “Performance assessment and economic analysis of a human Liver-Chip for predictive toxicology” (Communications Medicine, 2022).
“Also recorded” adds a separate entry of the source.

Key:
[1] = test system: 3D spheroid cultures of primary human hepatocytes; conditions: cited from earlier work; for Spheroid false negative: Yes/No, also No for drugs not tested in spheroid; for Toxicity detection in 3D hepatic spheroids: threshold 50; for Spheroid MOS: 3D hepatic spheroids, previously published data
[2] = test system: human Liver-Chip (Kupffer cell activation); experiment: IL-6 and TNF-alpha in Liver-Chip effluent (MSD U-PLEX); conditions: effluent of Liver-Chips from three donors, no inflammatory stimulant
Description: Samples were added to plates manually at a 1:2 dilution. Plates were read for cytokine release on the MESO QuickPlex SQ 120 (Meso Scale Discoveries).

[3] = test system: human Liver-Chip (hepatocyte layer); experiment: Liver-Chip immunofluorescence imaging (caspase 3/7, TMRM, AdipoRed/LipidTOX); type: cell-based; conditions: for Immunofluorescence staining result in words: caspase 3/7 (apoptosis) or TMRM (mitotoxicity), 7 days; for Immunofluorescent findings, donor one (Supplementary Figure 3) / Immunofluorescent findings, donor three (Supplementary Figure 3) / Immunofluorescent findings, donor two (Supplementary Figure 3): day 7 post-drug administration, hepatocyte layer, top channel
Description: Chips were detached from pods and washed once with PBS. […] Afterwards, chips were washed with PBS and stored at 4 °C until staining. Following fixation, chips corresponding to low, medium, and high concentrations from each group were cut in half with a razor blade perpendicular to the co-culture channels. One half was used in the following staining protocol, while the other half was stored for future staining. All stains and washes utilized the bubble method, in which a small amount of air is flowed through the channel prior to bulk wash media to prevent a liquid-liquid dilution of the staining solution. […] Following 15 minutes of incubation at room temperature, each channel was washed with 200 µL of PBS (alternating channels, 2× for top and 3× for bottom). As an alternative lipid accumulation marker, 100 µL of HCS LipidTOX Deep Red (ThermoFisher, H34477) was diluted 1:1000 v/v in PBS with NucBlue counterstain and added to the top channel. After a 30 min incubation at room temperature, the chips were again allowed to reach room temperature before the channels were alternatively washed with 200 µL of PBS, the bottom channel undergoing three washes and the top channel undergoing two. Chips were then imaged using the Opera Phenix. Following lipid and DAPI staining and imaging, chips were stained with a […] (MRP2) antibody to visualize the bile canalicular structures characteristic of healthy Liver-Chips. […] Then, each channel was washed with 200 µL of PBS (alternating channels, 2× for top and 3× for bottom). […] Next, primary antibody Mouse anti-MRP2 (Abcam, ab3373) was prepared 1:100 in the original blocking buffer, diluted 1:4 in PBS. 100 µL of solution was added to each channel, and chips were stored overnight at 4 °C. The following day, each channel was washed with 200 µL of PBS (alternating channels, 2× for top and 3× for bottom). […] 100 µL of solution was added to each channel and chips incubated at room temperature, protected from light, for two hours. Then, each channel was washed with 200 µL of PBS (alternating channels, 2× for top and 3× for bottom). Chips were imaged immediately or stored at 4 °C until ready for imaging on the Opera Phenix. Chip replicates designated for live cell imaging were washed with PBS utilizing the bubble method. Chips were then cut in half perpendicular to the co-culture channels. […] The bottom chips halves were stained with NucBlue (Thermo) to visualize nuclei and Tetramethylrhodamine, methyl ester (TMRM) (ThermoFisher, I34361) to visualize active mitochondria. This staining panel was prepared in PBS with 5% FBS, with NucBlue at 2 drops per mL and TMRM at a 1:1000 ratio in original blocking buffer, diluted 1:4 in PBS. Chips were incubated in the dark at 37 °C for 30 min, and then each channel was washed with 200 µL of PBS (alternating channels, 2× for top and 3× for bottom). The chips were kept at 37 °C, protected from light, until ready for imaging with the Opera Phenix. Fluorescent confocal image acquisition was performed using the Opera Phenix High-Content Screening System and Harmony 4.9 Imaging and Analysis Software (PerkinElmer). Before acquisition, the Phenix internal environment was set to 37 °C and 5% CO2. […] Whole chips were placed directly into each slot, while top and bottom half chips were matched and combined in one chip slot. Chips were aligned flush with the adapter and one another. Any bubbles identified from visual inspection were washed out with PBS. Once ready, the stained chips were covered with transparent plate film to seal channel ports and loaded into the Phenix. […] Z-stacks were generated with 3.6 µm between slices for 28–32 planes so that the epithelium was located around the center of the stack. […] Raw images from fixed and live imaging were exported in TIFF format from the Harmony software. Using scripts written for FIJI (ImageJ), TIFFs across three color channels and multiple z-stacks were compiled into composite images for each field of view in each chip. […]

human Liver-Chip = experiment: Liver-Chip DILI prediction: minimum toxic concentration and margin of safety (MOS)-like figure; conditions: for Chip MOS both donors / Chip MOS donor 1 / Chip MOS donor 2: free IC50 concentration in the assay divided by total concentration of drug in human plasma at Cmax; for Liver-Chip toxicity determination, MOS-like figure against threshold value of 50: not corrected for protein binding, donors one and two;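 on Chip MOS both donors: Toxic concentration is the lowest across albumin IC50 and ALT and morphology endpoints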;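 on Chip MOS donor 1: Toxic concentration is the lowest across albumin IC50 and ALT and morphology endpoints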;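 on Chip MOS donor 2: Toxic concentration is the lowest across albumin IC50 and ALT and morphology endpoints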
Excerpt: Because the fundamental principles of drug action dictate that free (unbound) drug concentrations drive drug effects, we explored an alternative methodology for calculating the MOS-like values by accounting for protein binding using a previously reported approach. Accordingly, we reanalyzed the findings for the 27 drugs in our study by accounting for protein binding.

[4] = test system: clinical drug-induced liver injury; conditions: clinical DILI severity category 1 to 5; cited from earlier work

Structure (SMILES)	Spheroid false negative [1]	Toxicity detection in 3D hepatic spheroids [1]	IL-6 and TNFα cytokine production after treatment [2]	Immunofluorescence staining result in words [3]	Immunofluorescent findings, donor one (Supplementary Figure 3) [3]	Immunofluorescent findings, donor three (Supplementary Figure 3) [3]	IF imaging Donor 1 ([3]; matched pair analysis)	IF imaging Donor 2 ([3]; matched pair analysis)	IF imaging Donor 3 ([3]; matched pair analysis)	Chip MOS both donors (human Liver-Chip)	Chip MOS donor 1 (human Liver-Chip)	Chip MOS donor 2 (human Liver-Chip)	Liver-Chip toxicity determination, MOS-like figure against threshold value of 50 (human Liver-Chip)	Spheroid MOS [1]	IF imaging Donor 1 ([3]; expanded drug list)	IF imaging Donor 2 ([3]; expanded drug list)	Garside DILI rank [4]	Immunofluorescent findings, donor two (Supplementary Figure 3) [3]
C[C@H]1COc2c(N3CCN(C)CC3)c(F)cc3c(=O)c(C(=O)O)cn1c23 [Levofloxacin]	Yes	not detected as toxic drugs in spheroids	no concentration-dependent change in cytokine levels; also recorded: did not detect any concentration-related change; also recorded: unable to see any concentration-dependent increase in cytokine production	did not cause cellular apoptosis	No findings	No findings	No findings	No findings	No findings	>33.7	>11.3	>33.7	not detected	–	–	–	–	–
Nc1c2c(nc3ccccc13)CCCC2 [Tacrine]	Yes	not detected as toxic drugs in spheroids	–	increased caspase 3/7 staining	Apoptosis	–	–	–	–	>12	>12	>12	not detected	696	Apoptosis	Apoptosis	2	–
CC[C@H]1OC(=O)[C@H](C)C(=O)[C@H](C)[C@@H](O[C@@H]2O[C@H](C)C[C@H](N(C)C)[C@H]2O)[C@](C)(OC)C[C@@H](C)C(=O)[C@H](C)[C@H]2N(CCCCn3cnc(-c4cccnc4)c3)C(=O)O[C@]12C [Telithromycin]	No	–	–	apoptosis-mediated cell death	Apoptosis	–	–	–	–	–	6	–	–	–	Apoptosis	–	1	–
Cc1ccc(C(=O)c2cc(O)c(O)c([N+](=O)[O-])c2)cc1 [Tolcapone]	No	–	–	–	Mitotoxicity	–	Mitotoxicity	Mitotoxicity	–	0.004	0.004	0.05	–	0.3	–	–	1	Mitotoxicity
Cc1c(C)c2c(c(C)c1O)CCC(C)(COc1ccc(CC3SC(=O)NC3=O)cc1)O2 (stereo not drawn) [Troglitazone]	No	–	–	–	Apoptosis	–	Apoptosis	Apoptosis	–	0.03	0.03	0.1	–	2.3	–	–	1	Apoptosis
N[C@@H]1[C@H]2CN(c3nc4c(cc3F)c(=O)c(C(=O)O)cn4-c3ccc(F)cc3F)C[C@@H]12 [Trovafloxacin]	–	–	no concentration-dependent change in cytokine levels; also recorded: did not detect any concentration-related change; also recorded: unable to see any concentration-dependent increase in cytokine production	concentration-dependent increases in caspase 3/7 staining	Apoptosis	Apoptosis	Apoptosis	Apoptosis	Apoptosis	–	–	–	–	–	–	–	–	Apoptosis
CC(c1cc2ccccc2s1)N(O)C(N)=O (stereo not drawn) [Zileuton]	Yes	–	–	–	No findings	–	–	–	–	15	>7	15	–	>7.7	No findings	No findings	2	No findings
